How the values were obtained:
[1] = biological target: T1, 20S proteasome core particle, PBE1(β5) subunit (chymotrypsin-like activity) (Arabidopsis thaliana, UniProt O23717); assay: Suc-LLVY-AMC fluorogenic peptidase assay with […] SylA, affinity-purified proteasomes; type: biochemical
T1 construct: with other subunits of the assembled 20S core particle (PAG1(α7)-FLAG)
T1 sequence (O23717 58-274): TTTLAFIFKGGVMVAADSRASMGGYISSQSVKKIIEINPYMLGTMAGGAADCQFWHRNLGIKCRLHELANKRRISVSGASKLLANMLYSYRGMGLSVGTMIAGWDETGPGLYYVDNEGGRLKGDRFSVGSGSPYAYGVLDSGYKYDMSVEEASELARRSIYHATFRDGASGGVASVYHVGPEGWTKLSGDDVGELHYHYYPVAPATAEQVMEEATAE
T1 sequence (O23715 2-249 partner): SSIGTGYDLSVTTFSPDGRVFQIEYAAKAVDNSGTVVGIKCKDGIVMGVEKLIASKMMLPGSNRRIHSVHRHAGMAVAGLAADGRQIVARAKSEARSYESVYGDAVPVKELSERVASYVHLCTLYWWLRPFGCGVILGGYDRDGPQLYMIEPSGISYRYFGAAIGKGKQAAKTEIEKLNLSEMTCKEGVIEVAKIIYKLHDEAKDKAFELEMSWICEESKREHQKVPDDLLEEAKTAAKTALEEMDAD

[2] = biological target: T2, 20S proteasome core particle, PBE1(β5) subunit (chymotrypsin-like activity) (Arabidopsis thaliana, UniProt O23717); assay: Suc-LLVY-AMC cleavage in leaf lysate and APF, […]; type: cell-based
T2 construct: native proteasomes in leaf crude lysate and apoplastic fluid; with other subunits of the assembled 20S core particle
T2 sequence (O23717 58-274): T1 sequence (O23717 58-274)

Structure (SMILES) | Suc-LLVY-AMC fluorogenic peptidase assay with 50 or 150 μM SylA, affinity-purifi [1] | Suc-LLVY-AMC cleavage in leaf lysate and APF, 50 μM [2]
CC(C)[C@H](NC(=O)N[C@H](C(=O)N[C@H]1/C=C/CCNC(=O)/C=C/[C@H](C(C)C)NC1=O)C(C)C)C(=O)O [SylA, syringolin-A] | not only effectively inhibit the proteolytic activity of affinity-purified Arabidopsis proteasomes and those in the CL | 
CC(C)C[C@H](NC(=O)[C@H](Cc1ccccc1)NC(=O)c1cnccn1)B(O)O [BTZ, 1R-3-methyl-1-2S-3-phenyl-2-pyrazin-2-carbonylamino propanoyl amino butyl boronic acid] |  | Suc-LLVY-AMC breakdown in the CL was strongly suppressed by the well-characterized CP inhibitors bortezomib (BTZ), MG132

— publication PMC11829042, “Proteasomes accumulate in the plant apoplast where they participate in microbe-associated molecular pattern (MAMP)-triggered pathogen defense” (Nature Communications, 2025)
